# Data taken from US20060069132A1, “Azolecarboxamide herbicides” (priority 2004, published 2006).
# What was measured:
# Experiment in all cases: Test E pre-/postemergence herbicide test
# [1] = system: annual bluegrass; type: in vivo, Poa annua
# Summary of the method: (§1)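 Postemergence treatment targeted plants at the 1- to 4-leaf stage (2–18 cm), alongside preemergence treatment of planted seed; both used a non-phytotoxic solvent mixture with surfactant. Visual ratings, 0 = no effect to 100 = complete control, were taken 12 to 14 days later.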
# [2] = system: large crabgrass; type: in vivo, Digitaria sanguinalis
# Summary of the method: as §1
# [3] = system: johnsongrass; type: in vivo, Sorghum halepense
# Summary of the method: as §1
# [4] = system: barnyardgrass; type: in vivo, Echinochloa crus-galli
# Summary of the method: as §1
# [5] = system: Canada horseweed; type: in vivo, Erigeron Canadensis; details: Preemergence
# Summary of the method: as §1
# [6] = system: Russian thistle; type: in vivo, Salsola kali
# Summary of the method: as §1
# [7] = system: Italian ryegrass; type: in vivo, Lolium multiflorum
# Summary of the method: as §1
# [8] = system: bipinnate beggarticks; type: in vivo, Bidens bipinnata
# Summary of the method: as §1
# [9] = system: quackgrass; type: in vivo, Elytrigia repens
# Summary of the method: as §1
# [10] = Preemergence, 62 g ai/ha, scale 0 to 100
# [11] = Preemergence, 125 g ai/ha, scale 0 to 100
# [12] = Preemergence, 250 g ai/ha, scale 0 (no effect) to 100 (complete control)
# [13] = Preemergence, 500 g ai/ha, scale 0 (no effect) to 100 (complete control)
# [14] = Postemergence, 500 g ai/ha, scale 0 to 100
# [15] = Postemergence, 250 g ai/ha, scale 0 to 100
# [16] = Preemergence, 375 g ai/ha, scale 0 (no effect) to 100 (complete control)
# [17] = postemergence, 125 g ai/ha, scale 0 to 100
# [18] = postemergence, 62 g ai/ha, scale 0 to 100
smiles,measurement,setting,value
CCc1nn(C(C)(C)C)nc1C(=O)Nc1cccc(C(=S)N(C)C)c1 [Compound 395],"Plant response rating, Bluegrass",[1]; [10],30
same,"Plant response rating, Bluegrass",[1]; [11],80
same,"Plant response rating, Bluegrass",[1]; [12],95
same,"Plant response rating, Bluegrass",[1]; [13],95
same,"Plant response rating, Crabgrass, Large",[2]; [10],80
same,"Plant response rating, Crabgrass, Large",[2]; [11],100
same,"Plant response rating, Crabgrass, Large",[2]; [12],100
same,"Plant response rating, Crabgrass, Large",[2]; [13],100
same,"Plant response rating, Johnsongrass",[3]; [10],30
same,"Plant response rating, Johnsongrass",[3]; [11],80
same,"Plant response rating, Johnsongrass",[3]; [12],90
same,"Plant response rating, Johnsongrass",[3]; [13],90
same,"Plant response rating, Barnyardgrass",[4]; [10],50
same,"Plant response rating, Barnyardgrass",[4]; [11],60
same,"Plant response rating, Barnyardgrass",[4]; [12],95
same,"Plant response rating, Barnyardgrass",[4]; [13],95
same,"Plant response rating, Horseweed","[5]; 62 g ai/ha, scale 0 to 100",90
same,"Plant response rating, Horseweed","[5]; 125 g ai/ha, scale 0 to 100",100
same,"Plant response rating, Horseweed","[5]; 250 g ai/ha, scale 0 (no effect) to 100 (complete control)",100
same,"Plant response rating, Horseweed","[5]; 500 g ai/ha, scale 0 (no effect) to 100 (complete control)",100
same,"Plant response rating, Thistle",[6]; [13],60
same,"Plant response rating, Ryegrass, Italian",[7]; [10],20
same,"Plant response rating, Ryegrass, Italian",[7]; [11],80
same,"Plant response rating, Ryegrass, Italian",[7]; [12],90
same,"Plant response rating, Ryegrass, Italian",[7]; [13],95
same,"Plant response rating, Beggarticks, Bip.",[8]; [10],40
same,"Plant response rating, Beggarticks, Bip.",[8]; [11],100
same,"Plant response rating, Beggarticks, Bip.",[8]; [12],100
same,"Plant response rating, Beggarticks, Bip.",[8]; [13],100
same,"Plant response rating, Quackgrass",[9]; [10],60
same,"Plant response rating, Quackgrass",[9]; [11],80
same,"Plant response rating, Quackgrass",[9]; [12],85
same,"Plant response rating, Quackgrass",[9]; [13],90
CCn1nc(C(C)(C)C)cc1C(=O)Nc1cc(C(=S)N(C)C)ccc1F [Compound 294],"Plant response rating, Bluegrass",[1]; [14],95
same,"Plant response rating, Bluegrass",[1]; [15],95
same,"Plant response rating, Bluegrass",[1]; [11],95
same,"Plant response rating, Bluegrass",[1]; [12],95
same,"Plant response rating, Bluegrass",[1]; [16],95
same,"Plant response rating, Bluegrass",[1]; [13],100
same,"Plant response rating, Bluegrass",[1]; [17],95
same,"Plant response rating, Bluegrass",[1]; [18],95
same,"Plant response rating, Crabgrass, Large",[2]; [14],80
same,"Plant response rating, Crabgrass, Large",[2]; [15],75
same,"Plant response rating, Crabgrass, Large",[2]; [11],75
same,"Plant response rating, Crabgrass, Large",[2]; [12],95
same,"Plant response rating, Crabgrass, Large",[2]; [16],100
same,"Plant response rating, Crabgrass, Large",[2]; [13],100
same,"Plant response rating, Crabgrass, Large",[2]; [17],70
same,"Plant response rating, Crabgrass, Large",[2]; [18],40
same,"Plant response rating, Johnsongrass",[3]; [14],90
same,"Plant response rating, Johnsongrass",[3]; [15],80
same,"Plant response rating, Johnsongrass",[3]; [11],30
same,"Plant response rating, Johnsongrass",[3]; [12],75
same,"Plant response rating, Johnsongrass",[3]; [16],85
same,"Plant response rating, Johnsongrass",[3]; [13],85
same,"Plant response rating, Johnsongrass",[3]; [17],70
same,"Plant response rating, Johnsongrass",[3]; [18],40
same,"Plant response rating, Barnyardgrass",[4]; [14],80
same,"Plant response rating, Barnyardgrass",[4]; [15],75
same,"Plant response rating, Barnyardgrass",[4]; [11],95
same,"Plant response rating, Barnyardgrass",[4]; [12],95
same,"Plant response rating, Barnyardgrass",[4]; [16],100
same,"Plant response rating, Barnyardgrass",[4]; [13],100
same,"Plant response rating, Barnyardgrass",[4]; [17],60
same,"Plant response rating, Barnyardgrass",[4]; [18],40
same,"Plant response rating, Thistle",[6]; [14],80
same,"Plant response rating, Thistle",[6]; [15],80
same,"Plant response rating, Thistle",[6]; [11],50
same,"Plant response rating, Thistle",[6]; [16],100
same,"Plant response rating, Thistle",[6]; [13],100
same,"Plant response rating, Ryegrass, Italian",[7]; [14],95
same,"Plant response rating, Ryegrass, Italian",[7]; [15],95
same,"Plant response rating, Ryegrass, Italian",[7]; [11],80
same,"Plant response rating, Ryegrass, Italian",[7]; [12],100
same,"Plant response rating, Ryegrass, Italian",[7]; [16],100
same,"Plant response rating, Ryegrass, Italian",[7]; [13],100
same,"Plant response rating, Ryegrass, Italian",[7]; [17],80
same,"Plant response rating, Ryegrass, Italian",[7]; [18],70
same,"Plant response rating, Beggarticks, Bip.",[8]; [14],75
same,"Plant response rating, Beggarticks, Bip.",[8]; [15],70
same,"Plant response rating, Beggarticks, Bip.",[8]; [17],60
same,"Plant response rating, Beggarticks, Bip.",[8]; [18],40
same,"Plant response rating, Quackgrass",[9]; [14],85
same,"Plant response rating, Quackgrass",[9]; [15],85
same,"Plant response rating, Quackgrass",[9]; [11],80
same,"Plant response rating, Quackgrass",[9]; [12],80
same,"Plant response rating, Quackgrass",[9]; [16],95
same,"Plant response rating, Quackgrass",[9]; [13],95
same,"Plant response rating, Quackgrass",[9]; [17],80
same,"Plant response rating, Quackgrass",[9]; [18],60
CCn1nc(C2(C)CC2)cc1C(=O)Nc1cc(C(=O)N(C)C)ccc1F [Compound 299],"Plant response rating, Bluegrass",[1]; [14],100
same,"Plant response rating, Bluegrass",[1]; [15],80
same,"Plant response rating, Bluegrass",[1]; [10],85
same,"Plant response rating, Bluegrass",[1]; [11],95
same,"Plant response rating, Bluegrass",[1]; [12],95
same,"Plant response rating, Bluegrass",[1]; [13],100
same,"Plant response rating, Bluegrass",[1]; [17],70
same,"Plant response rating, Bluegrass",[1]; [18],60
same,"Plant response rating, Crabgrass, Large",[2]; [14],95
same,"Plant response rating, Crabgrass, Large",[2]; [15],95
same,"Plant response rating, Crabgrass, Large",[2]; [10],90
same,"Plant response rating, Crabgrass, Large",[2]; [11],100
same,"Plant response rating, Crabgrass, Large",[2]; [12],100
same,"Plant response rating, Crabgrass, Large",[2]; [13],100
same,"Plant response rating, Crabgrass, Large",[2]; [17],85
same,"Plant response rating, Crabgrass, Large",[2]; [18],75
same,"Plant response rating, Johnsongrass",[3]; [14],85
same,"Plant response rating, Johnsongrass",[3]; [15],85
same,"Plant response rating, Johnsongrass",[3]; [10],40
same,"Plant response rating, Johnsongrass",[3]; [11],60
same,"Plant response rating, Johnsongrass",[3]; [12],80
same,"Plant response rating, Johnsongrass",[3]; [13],100
same,"Plant response rating, Johnsongrass",[3]; [17],80
same,"Plant response rating, Johnsongrass",[3]; [18],60
same,"Plant response rating, Barnyardgrass",[4]; [14],80
same,"Plant response rating, Barnyardgrass",[4]; [15],70
same,"Plant response rating, Barnyardgrass",[4]; [10],60
same,"Plant response rating, Barnyardgrass",[4]; [11],85
same,"Plant response rating, Barnyardgrass",[4]; [12],95
same,"Plant response rating, Barnyardgrass",[4]; [13],100
same,"Plant response rating, Barnyardgrass",[4]; [17],70
same,"Plant response rating, Barnyardgrass",[4]; [18],40
same,"Plant response rating, Thistle",[6]; [14],90
same,"Plant response rating, Thistle",[6]; [15],70
same,"Plant response rating, Thistle",[6]; [11],100
same,"Plant response rating, Ryegrass, Italian",[7]; [14],85
same,"Plant response rating, Ryegrass, Italian",[7]; [15],85
same,"Plant response rating, Ryegrass, Italian",[7]; [10],70
same,"Plant response rating, Ryegrass, Italian",[7]; [11],95
same,"Plant response rating, Ryegrass, Italian",[7]; [12],100
same,"Plant response rating, Ryegrass, Italian",[7]; [13],100
same,"Plant response rating, Ryegrass, Italian",[7]; [17],80
same,"Plant response rating, Ryegrass, Italian",[7]; [18],60
same,"Plant response rating, Beggarticks, Bip.",[8]; [14],80
same,"Plant response rating, Beggarticks, Bip.",[8]; [15],60
same,"Plant response rating, Beggarticks, Bip.",[8]; [17],60
same,"Plant response rating, Beggarticks, Bip.",[8]; [18],40
same,"Plant response rating, Quackgrass",[9]; [14],100
same,"Plant response rating, Quackgrass",[9]; [15],85
same,"Plant response rating, Quackgrass",[9]; [10],80
same,"Plant response rating, Quackgrass",[9]; [11],80
same,"Plant response rating, Quackgrass",[9]; [12],95
same,"Plant response rating, Quackgrass",[9]; [13],100
same,"Plant response rating, Quackgrass",[9]; [17],75
same,"Plant response rating, Quackgrass",[9]; [18],20
